In patent publication US7943606B2, “Compositions and methods to control abnormal cell growth” (CanCure Laboratories, LLC, priority 2005, dated 2011):

Assays:
[1] = Viability of HTB-157 fetal (normal) fibroblasts; assay type: cell-based, human; details: human, MTT
Method: (§1) To quantify cell death, around the time when significant and characteristic morphological changes took place, cells were pulse-labeled for 10 minutes with [^3H]thymidine to measure DNA activity as described elsewhere [Tomono, M. and Kiss, Z. (1995), “Ethanol enhances the stimulatory effects of insulin and insulin-like growth factor-I on DNA synthesis in NIH 3T3 fibroblasts,” Biochem. Biophys. Res. Commun. 208, 63-67]. Also, cells were collected as suspensions using trypsin, an established method in cell biology, followed by re-plating of cells in fresh tissue culture medium. If no viable cells were obtained after one week in culture, it meant that the cells at the time of re-plating were dead. Survival values obtained with untreated cells were considered 100%. For the determination of relative number of viable cells after treatments, in most cases the MTT assay was used. This calorimetric assay is based on the ability of living cells, but not dead cells, to reduce 3-(4,5-dimethyl thiazol-2-yl)-2,5-diphenyltetrazolium bromide [Carmichael, J, De Graff, W. G., Gazdar, A. F., Minna, J. D. and Mitchell, J. B. (1987), “Evaluation of tetrazolium-based semi-automated calorimetric assay: Assessment of chemosensitivity testing,” Cancer Res. 47, 936-942]. For this assay, cells were plated in 96-well plates, and the MTT assay was performed both in untreated and treated cell cultures. The MTT assay also was performed at the start of treatments to allow assessment of proliferation rates in the control and treated cell cultures.
(§2) NIH3T3, T47D, A-431, HT-29, and MEL-28 cells were cultured as indicated earlier. CaOV-3 human ovarian cancer cells were cultured in DMEM containing 10% FBS. ZR-75-1 human estrogen receptor-positive breast cancer cells were maintained in RPMI 1640 medium supplemented with 10% FBS. HTB-157 human fetal fibroblasts, MEL-24 human malignant melanoma cells, Hep G2 human hepatoblastoma cells, and CaCO-2 human colon adenocarcinoma cells were maintained in Eagles's MEM containing 10% FBS. MB-231 human estrogen receptor-negative breast cancer cells were maintained in Leibovitz's L-15 medium supplemented with 10% FBS. Cells were seeded into 96-well plates and treated at ˜70-90% confluency. Two hours prior to treatments the medium was changed for fresh 10% serum medium, and then the cells were incubated for 10 days in the absence (□) or presence of 50 μM CCDTHT ? or 100 μM CCDTHT (▪). The medium was changed and the cells were re-treated on days 3 and 6. The MTT assay was used to determine cell viability on day 10. The data, shown in FIG. 6, are the mean±std. dev. of 8 incubations in one experiment. (The experiment was repeated twice with similar results).
(§3) HTB-157, MEL-28, CaOV-3, T47D, and A-431 cells were maintained as indicated earlier. The 3A-SubE post crisis placenta cells (capable of unlimited proliferation) were maintained in Eagle's MEM containing 10% FBS. Cells were seeded into 96-well plates and treated at ˜70-90% confluency. Two hours before treatments the medium was changed for fresh 10% serum medium, and then cells were incubated for 48 hours in the absence (□) or presence of 50 μM CCDTHT ? or 100 μM CCDTHT (▪). Half of the cultures was analyzed by the MTT assay at this point, and the other half of the cultures was incubated for an additional 96 hours in fresh 10% serum-containing medium without CCDTHT followed by the MTT assay. The data, shown in FIG. 8, are the mean±std. dev. of 8 incubations in one experiment. (Similar results were obtained in another experiment).
(§4) HaCaT keratinocytes, frequently used immortalized model cells for studying psoriatic keratinocytes, and HTB-157 human fetus lung fibroblasts were cultured in 10% FBS-containing Dulbecco's modified Eagle's medium (DMEM). […]

[2] = tested on: HTB-157 cells; experiment: Viability of HTB-157 fetal (normal) fibroblasts; assay type: cell-based, human
Method: as §1, §2, §3, §4

[3] = tested on: MCF-7 cells; experiment: Viability of MCF-7 breast cancer cells; assay type: cell-based, human
Method: as §1
About 50% confluent cultures of MCF-7 cells, cultured in 12-well plates in Dulbecco's modified Eagle's medium (DMEM) supplemented with 10% FBS, were either untreated (FIG. 3A), or were treated with 100 μM CCDTHT (CCompound3) for 72 hours (FIG. 3B). […] This experiment was repeated three times with similar results. In some experiments, cells from the CCDTHT-treated cultures were seeded into 96-well plates, and the MTT assay was performed 96 hours later to test for viable cells.
The NIH 3T3 (normal) mouse fibroblast, A431 human epidermoid adenocarcinoma, and MCF-7 human breast cancer cells were cultured in DMEM medium containing 10% FBS. The MEL-28 human melanoma cells were cultured in MEM medium containing 10% FBS. The HT-29 human colon adenocarcinoma cells were cultured in McCoy's 5a medium containing 10% FBS. The A549 human lung carcinoma cells were maintained in Ham's F12K medium containing 10% FBS. Cells were seeded into 96-well plates and treated at ˜70-90% confluency. Two hours before treatments the medium was changed for fresh 10% serum medium, and then the cells were incubated for 72 hours in the presence of 0-200 μM of CCompound1 (●) or CCompound3 (CCDTHT) (▴), as indicated. The MTT assay was used to determine cell viability after treatments. The values, shown in FIGS. 5A-5F and expressed as percent decrease in viability compared to the untreated control cells, are the mean±std. dev. of 8 incubations in one experiment. Similar results were obtained in another experiment.
NIH 3T3, AN3CA, HT-29, MEL-28, and MCF-7 cells were cultured as described earlier. Cells were seeded into 96-well plates; when cells were ˜80-90% confluent, the medium was changed for fresh 10% serum-containing medium, followed by incubations for 72 hours in the absence (□) or presence of 100 μM CCDTHT ? , 2 mM ethanolamine (Etn) ? , or 100 μM CCDTHT+2 mM Etn (▪). The MTT assay was used to determine cell viability. […]

[4] = Toxicological studies in mice; assay type: in vivo, mouse
Method: Accordingly, a well-tolerated dose for CCDTHT in mice is 450 μmole/animal (weighing about 25 g) which corresponds to a dose of 4.6 mg/kg. Therapeutically effective concentrations in humans will exert maximal inhibitory effects on the growth of non-healthy tissues without causing significant toxicity in normal healthy tissues.
Parallel toxicological studies also have been performed with 200-500 μmole/animal doses of the commercially available CCompound1. […] CCompound26, which may have an even better toxicity profile based on in vitro experiments with normal cells, was synthesized much later and has not yet been tested in animal experiments.

CC[N+](C)(CC)CCOCc1ccc2sc3ccccc3c(=O)c2c1.[I-] [CCDTHT, N,N-diethyl-N-methyl-2-[(9-oxo-9H-thioxanthen-2-yl)methoxy]-ethanaminium iodide]
cytotoxicity at 10 days, 100 μM ([1]; HTB-157 fetal (normal) fibroblasts, 100 μM, 10 days, read-out: reduction in the number of viable cells, HTB-157): ≤ 50%
cytotoxicity at 48 h ([1]; HTB-157 fetal lung (normal) fibroblasts, 50-100 μM, 48 hours, read-out: decrease in viability of HTB-157 fibroblasts): 20 to 22%
reversibility: proliferation in fresh medium after treatment, HTB-157 ([2]; 100 μM 48 hours, then 96 hours without CCDTHT): clearly resumed proliferation
decrease in DNA synthesis, HTB-157 fibroblasts ([2]; 100 μM, 48 hours): about 16%
numbers of re-plated untreated and treated HTB-157 fibroblasts ([2]; 100 μM, re-plated after treatment): practically no difference
decrease in viability of HTB-157 fibroblasts ([2]; 50-100 μM, 48 hours, MTT): 19-20%
sensitivity compared with HaCaT cells, HTB-157 fibroblasts ([2]; 50 and 100 μM, 72 hours, MTT): significantly less sensitive
decrease in viability, MCF-7 ([3]; 0-200 μM, 72 hours, MTT): similarly large effects
viable cells by MTT after re-seeding treated MCF-7 cells ([3]; 100 μM 72 hours, re-seeded, MTT 96 hours later): did not detect viable cells
morphology / cell death, MCF-7 ([3]; 100 μM, 72 hours, 12-well plates): practically all cells rounded up
death of animals by day 30 ([4]; 900 μmole (about 9.2 mg/kg)): 40%
tissue alterations ([4]; 900 μmole (about 9.2 mg/kg)): mild parenchymal degeneration in the heart, focal hypostasis and chronic bronchopneumonia in the lung, and multifocal degeneration of hepatocytes in the liver
change in the composition of various blood constituents ([4]; single 450 μmole (about 4.6 mg/kg) or 400 μmole daily for 5 consecutive days): did not cause any significant change
pathological alterations in liver, brain, kidney, heart, spleen, intestine and lung ([4]; single 450 μmole or 400 μmole daily for 5 consecutive days): did not induce significant pathological alterations
